Results from patent US20040132121A1, “Method of identifying antibacterial compounds” (priority 2000, published 2004).
Like-named read-outs stand apart in the source and are kept apart here. Where a SMILES comes first, the peptide text is derived from it. Where no end group is shown, it is not given here.

Legend:
[1] = biological target: T1, binding of E. coli α to E. coli β (Escherichia coli, UniProt P0A988); assay: biochemical; details: for inhibition of the binding of α to β: plate inhibition assay as in Example 6, buffer BB14
T1 construct: made in house
T1 sequence (P0A988 whole entry): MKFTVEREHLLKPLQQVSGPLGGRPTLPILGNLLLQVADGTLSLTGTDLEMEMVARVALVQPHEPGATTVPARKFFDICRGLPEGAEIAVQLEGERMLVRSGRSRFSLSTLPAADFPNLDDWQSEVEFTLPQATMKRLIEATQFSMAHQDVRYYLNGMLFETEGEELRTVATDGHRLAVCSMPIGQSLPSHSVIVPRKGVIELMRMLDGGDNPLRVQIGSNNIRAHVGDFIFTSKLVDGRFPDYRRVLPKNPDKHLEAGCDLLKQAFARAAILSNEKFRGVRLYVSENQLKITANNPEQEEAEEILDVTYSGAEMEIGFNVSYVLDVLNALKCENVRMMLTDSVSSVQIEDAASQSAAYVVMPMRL
Method: Recombinantly expressed wild type E. coli α subunit was purified and coated onto 96 well microtitre plates (Falcon flexible plates, Becton Dickinson) at 20 μg/ml in 100 mM Na2CO3, pH9.5 (50 μl/well, 4° C. overnight or 2 h, RT (RT). The plates were washed in WB3 (20 mM Tris (pH 7.5), 0.1 mM EDTA containing 0.05% v/v Tween 20). This buffer was used in all wash steps through out the assay. The plates were then blocked with “blotto” (5% skim milk powder in WB3, 100 μl/well, RT) until required. Immediately before use the plates were washed.
The purified synthetic peptides and β subunit were diluted in BB14 (20 mM Tris, pH 7.5, 10 mM MgCl2, 0.1 mM EDTA). Purified synthetic peptides with concentrations of 9.3-300 and 1000 μg/ml were allowed to complex with purified wild type β subunit (5 μg/ml) in a 96 well microtitre plate (Sarsted, Adelaide, Australia) pre-treated with “blotto” (30 min, RT). The reaction volume was 120 μl. The β subunit also was incubated in the absence of peptide or in the presence of the α subunit at 76.5 (μg/ml in BB14. All samples were incubated for 1 h (RT). Two 50 μl samples were transferred from each well to a corresponding well of the washed and “blocked” α subunit coated plates, and further incubated for 30 min (RT).
The plates were washed and treated with rabbit serum raised to the β subunit. The anti-serum was diluted 1:1000 in WB3 containing 10% “blotto”, dispensed at 50 μl/well and incubated for 12 min (RT). The plates were washed again and treated with sheep anti-rabbit Ig-HRP conjugate (Silenus, Melbourne, Australia) diluted 1:1000 in WB3 containing 10% “blotto” (50 μl/well). The plate was incubated for 12 min (RT). After a final washing step, 1 mM 2,2′-azino-bis (3-ethylbenzthiazoline-6-sulfonic acid) was added (110 μl/well). Colour development was assessed at 405 nm using a plate reader (Multiskan Ascent, Labsystems, Sweden).
For the CMS compounds in the of α:β assays, buffer BB37 replaced buffer BB14. Buffer BB37 contains 10 mM MnCl2 instead of the 10 mM MgCl2 used in BB14. The buffer conditions were changed to improve the reproducibility and sensitivity of the α:β binding assay.
Compounds from the CMS library were dissolved in DMSO at 1 mg/ml in a 96 well tray format. A corresponding slave plate was prepared by adding 115 μl of BB37. Dissolved compounds (5 μl) from the master plate was added to the corresponding well in slave plates giving a final concentration of 41.7 μg/ml.
Compounds were assayed for inhibition of the binding of E. coli α to E. coli β as described in Example 13.
Peptides were assayed for inhibition of the binding of E. coli α to E. coli β as described in Example 6 with the exception that buffer BB37 replaced buffer BB14 in the alpha:beta binding assay. As noted above, BB37 contains 10 mM MnCl2 instead of 10 mM MgCl2 used in BB14. Again, the change in buffer conditions was made to improve the reproducibility and sensitivity of the α:β binding assay.

[2] = biological target: binding of E. coli δ to E. coli β (Escherichia coli, UniProt P0A988); assay: biochemical; details: for inhibition of the binding of δ to β: plate binding assay as in Example 6
binding of E. coli δ to E. coli β, sequence (P0A988 whole entry): as above

β subunit [3] = biological target: T2, β subunit (Escherichia coli, UniProt P0A988); assay: Surface plasmon resonance solution affinity analysis (IC50 of free peptide); type: binding, E. coli
T2 sequence (P0A988 whole entry): as above
Method: (§1) Reverse phase HPLC purified peptides (10 μg) were reacted with 1 mg biotin-linker (6-(6-((biotinoyl)amino(hexanoyl) amino) hexanoic acid) sulphosuccinimidyl ester; Molecular Probes, Eugene, Oreg.) (20 mg/ml in DMSO) in 75 mM sodium borate (pH8.5) overnight (RT) with rotation. […] Biotinylated peptides that eluted later than the biotin-linker and free peptide, were collected, vacuum dried and then dissolved in water. SPR was conducted on a Biacore 2000 using streptavidin derivitised flow cell surfaces (Biacore). All β subunit and free peptide solutions were prepared in BB14 with 150 mM NaCl.
For the solution affinity analyses, higher loadings of the biotinylated peptides on the flow cell surfaces, and therefore high RU (700-1000), were established. Loading with peptide 4 generated a negative control surface. […] In all data manipulations, the RU values of this surface was subtracted from the RU values of the test surface. A calibration curve of RU values generated at different concentrations of the β subunit over 10-100 nM was developed for each biotinylated peptide attached to the flow cell surface. To determine the inhibitory effect of free peptide, 100 nM β subunit was pre-incubated for 5 min with different concentrations of free peptide (10 nM to 4.5 μM, in duplicate) to form a complex of β subunit and peptide and then passed over the flow cell surfaces. The amount of free uncomplexed βremaining was determined from the calibration curve. The log of the concentration of the uncomplexed (free) β subunit was plotted against the log concentration of inhibitory peptide.

β subunit [4] = biological target: T2, β subunit; assay: biochemical; type: binding, E. coli; details: SPR, 1:1 Langmuir model
Method: as §1
The data was fitted to the 1:1 Langmuir model by the BioEvaluation software (Biacore).

[5] = Table 21, NCI compounds, buffer BB14, read-out: IC50 α-binding
[6] = IC50 δ (inhibition of binding of δ to β), Table 17, δ-coated plate, β 1 μg/ml
[7] = Table 17, α-coated plate, β 5 μg/ml, buffer BB14, read-out: IC50 α (inhibition of binding of α to β) (converted)
[8] = Table 20, assayed as in Example 6, read-out: IC50 α:β
[9] = IC50 b-peptide 1, free peptide with 100 nM β, biotinylated peptide 1 on flow cell surface
[10] = IC50 b-peptide 14, free peptide with 100 nM β, biotinylated peptide 14 on flow cell surface
[11] = Table 24, buffer BB37 (10 mM MnCl2), read-out: IC50 α:β
[12] = free peptide with 100 nM β, biotinylated peptide 1 on flow cell surface, read-out: IC50 b-peptide 1
[13] = free peptide with 100 nM β, biotinylated peptide 14 on flow cell surface, read-out: IC50 b-peptide 14
[14] = biotinylated peptide on surface, read-out: KD
[15] = biotinylated peptide on flow cell surface, read-out: KD

COC(=O)CC(=O)NOCc1ccc(Cl)c(Cl)c1 [AOC-06454]
% Inhibition of binding of E. coli α to E. coli β [1]: 72.2, 75.3%

COC(=O)CC(=O)NOCc1ccc(Cl)c(Cl)c1 [AOL-06454]
inhibition of the binding of E. coli α to E. coli β (CMS library screen) [1]: significantly inhibited

CC[C@H](C)[C@H](N)C(=O)NCC(=O)N[C@@H](CCC(N)=O)C(=O)N[C@@H](C)C(=O)N[C@@H](CC(=O)O)C(=O)N[C@@H](CCSC)C(=O)N[C@@H](Cc1ccccc1)C(=O)NCC(=O)N[C@H](C(=O)O)C(C)C [DnaE]
inhibition of the binding of δ to β [2]: inhibited
inhibition of the binding of α to β [1]: significant inhibition

NC(CCC(=O)NC(CSCC(=O)c1ccc(Br)cc1)C(=O)NCC(=O)O)C(=O)O (stereo not shown) [Peptide 131123]
IC50 ([2]; IC50 δ-binding, Table 21): > 1000 µM
IC50 [1, 5]: 210 µM
inhibition of the binding of α to β [1]: significantly inhibited

CC(C)(C)OC(=O)NCC(=O)NC(CSC(c1ccccc1)c1ccccc1)C(=O)NCC(=O)O (stereo not shown) [Peptide 338500]
IC50 ([2]; IC50 δ-binding, Table 21): 146 µM
inhibition of the binding of δ to β [2]: significantly inhibited
IC50 [1, 5]: > 1000 µM

CC(C)C[C@H](NC(=O)[C@@H](N)CC(=O)O)C(=O)N[C@@H](Cc1ccccc1)C(=O)O [pep16] (H-Asp-Leu-Phe-OH; N-terminus and C-terminus assumed)
IC50 [2, 6]: 3050 µM
IC50 [1, 7]: 343 µM
IC50 [1, 8]: 135 µM

CC(=O)N[C@@H](CC(=O)O)C(=O)N[C@@H](CC(C)C)C(=O)N[C@@H](Cc1ccccc1)C(N)=O [pep18] (Ac-Asp-Leu-Phe-NH2)
IC50 [1, 8]: 135 µM

EAQLDLFDS [Peptide 112d]
IC50 [2]: 3.6 µM
IC50 [1]: 1 µM

IGQADMAGV [Peptide 4]
IC50 (β subunit [3]; [9]): > 10 µM
IC50 (β subunit [3]; [10]): > 10 µM

IGQAMSLFGV [Peptide 110a]
IC50 ([2]; IC50 δ:β, Table 24): > 100 µM
IC50 [1, 11]: 27 µM

IGQASMFGV [pep2]
IC50 δ (inhibition of binding of δ to β) ([2]; Table 17, δ-coated plate, β 1 μg/ml): ni^a
IC50 [1]: 946 µM

IGQLDLFGV [Peptide 14]
IC50 (β subunit [3]; [12]): 0.4 µM
IC50 (β subunit [3]; [13]): 0.5 µM
inhibition of the binding of δ to β [2]: inhibited
inhibition of the binding of α to β [1]: significant inhibition
Kd (β subunit [4]; [14]): 0.8 µM
Kd (β subunit [4]; [15]): 0.778 µM

IGQLDLFGV [pep14]
IC50 [2, 6]: 9.16 µM
IC50 [1, 7]: 1.38 µM

IGQLDMFGV [Peptide 1]
IC50 (β subunit [3]; [9]): 0.92 µM
IC50 (β subunit [3]; [10]): 1.01 µM
inhibition of the binding of δ to β [2]: inhibited
inhibition of the binding of α to β [1]: significant inhibition
Kd (β subunit [4]; KD, biotinylated peptide on surface): 0.5 µM
Kd (β subunit [4]; KD, biotinylated peptide on flow cell surface): 0.558 µM

IGQLDMFGV [pep1]
IC50 [2]: 13.2 µM
IC50 [1]: 2.86 µM

IGQLGLFGV [Peptide 110f]
IC50 ([2]; IC50 δ:β, Table 24): 9.5 µM
IC50 [1, 11]: 17.5 µM

IGQLNLFGV [Peptide 110d]
IC50 ([2]; IC50 δ:β, Table 24): 11.5 µM
IC50 [1, 11]: 7.8 µM

IGQLSLFGV [Peptide 13]
IC50 (β subunit [3]; [12]): 0.44 µM
IC50 (β subunit [3]; [13]): 0.55 µM
IC50 [2, 6]: 10.2 µM
IC50 ([2]; IC50 δ:β, Table 24): 5.9 µM
inhibition of the binding of δ to β [2]: inhibited
IC50 [1, 7]: 1.52 µM
IC50 [1, 11]: 4.9 µM
inhibition of the binding of α to β [1]: significant inhibition
Kd (β subunit [4]; [14]): 0.778 µM
Kd (β subunit [4]; [15]): 0.8 µM

IGQLSLPLGV [Peptide 110c]
IC50 ([2]; IC50 δ:β, Table 24): 3.3 µM
IC50 [1, 11]: 3.4 µM

IGQLVLGLGV [Peptide 110b]
IC50 ([2]; IC50 δ:β, Table 24): 6.8 µM
IC50 [1, 11]: 9.3 µM

IGQMSLLGV [Peptide 110e]
IC50 ([2]; IC50 δ:β, Table 24): 7 µM
IC50 [1, 11]: 9.7 µM
